Test results as given in article PMC9518288, “The mechanism and pharmacodynamics of 2-((1H-indol-3-yl)thio/sulfinyl)-N-pheny acetamide derivative as a novel inhibitor against human respiratory syncytial virus” (Journal of Enzyme Inhibition and Medicinal Chemistry, 2022).

Experiments:
[1] = system: RSV minigenome (pBR322B-RSV-Gluc) in BHK-T7 cells; experiment: RSV minigenome assay (Gluc expression); format: cell-based, Human respiratory syncytial virus; settings: positive controls, concentration not given; BHK-T7, 24 h, vs DMSO
Procedure: BHK-T7 cells were seeded into 24 well plates at a density of 2 × 10^4 cells/well and incubated for 24 h. Then the RSV minigenome plasmid encoding […] (pBR322B-RSV-Gluc) was mixed with the helper plasmids (pCITE-N, pCITE-P, pCITE-L and pCITE-M2-1) in an Eppendorf tube containing 250 μL Opti-MEM. Meanwhile, the transfection reagent of Lipofectamine 2000 (Invitrogen, CA, USA) was diluted in another tube containing 250 μL Opti-MEM and incubated 5 min at room temperature. Then, the plasmids were mixed with the transfection reagent and incubated at room temperature for 30 min. After that, the BHK-T7 culture media were replaced with the DNA-lipo-optiMEM mixture and incubated for 4 ∼ 6 h (37 °C, 5% CO2). Then the DNA-lipo-optiMEM mixture was replaced with media containing the compounds (4–49 C at 1 mM and 1-HB-63 at 200 μM) and further incubated for 24 h (37 °C, 5% CO2). Finally, after the supernatant of the BHK-T7 cells was transferred into 96 well plate, the Gluc activity was determined by using LUMI star (BMG ABTECH, Ortenberg, Germany) following the manufacturer’s instructions after adding the chromogenic substrate of Gaussia Luciferase Flex Assay Kit (NEB, Ipswich, USA). The results were recorded by photography and/or evaluated with OPTIMA software (BMG LABTECH). The resultant signal strength was quantified as relative light unit (RLU).
(§1) Figure 2. Investigation on the underlying mechanism 4–49 C and 1-HB-63 inhibiting wtRSV replication. (A) Time-of-addition analyses of 4-49C and 1-HB-63 replication. The HEp-2 cells were infected with wtRSV at a multiplication of infection (MOI) of 5 for 2 h (37 °C, 5% CO2). The cells were washed with PBS and the media containing drug (4-49C, 1-HB-63, RSV-604, GS-5806 and Ribavirin at 1 mM, 200 μM, 10 μM, 1 mM and 100 μM, respectively.) were added at −1, 0, 2, 4, 6, 8, 10, 12 and 14 h separately and incubated till 24 h post infection. Then, the cells were harvested and lysed for RNA extraction and RT-qPCR assay. The results were a representative of three independent experiments, and shown as means ± standard and expressed as % negative control, although in many cases the bars for the standard deviation were obscured by the symbols given the small margin of values. (B) RSV adsorption analyses. After HEp-2 cells seeded into 24 well plates for 24 h, the cold media containing RSV (5 MOI) and compounds of 4–49C, 1-HB-63 and P13 at 1 mM, 200 μM and 100 μM, respectively, was added and incubated for 1 h at 4 °C. Then, the total RNA was isolated and RT-qPCR was performed. (C) RSV minigenome assay. After 24 h, we cotransfected RSV minigenome plasmid of pBR322B-RSV-Gluc with four auxiliary plasmids into BHK/T7 cells and detected the expression of Gluc in the supernatant. […]

[2] = system: wtRSV in HEp-2 cells; experiment: Time-of-addition assay (RT-qPCR); format: cell-based, Human respiratory syncytial virus; settings: compound at 1 mM; wtRSV MOI 5, HEp-2; added at −1 to 14 h, RT-qPCR at 24 h post infection
Procedure: The time-of-addition assay was performed as follows according to our previous work and literature[25]^,[27]. HEp-2 cells were plated in 96 well plates at 1.5 × 10^4 cells per well in 100 µL culture medium and incubated for 24 h (37 °C, 5% CO2). Then, HEp-2 cells were infected with wtRSV at a multiplication of infection (MOI) of 5 for 2 h (37 °C, 5% CO2). The cells were washed with PBS and the media containing drugs and compounds of 4–49 C, 1-HB-63, RSV-604, GS-5806 and Ribavirin at 1 mM, 200 μM, 10 μM, 1 mM and 100 μM, respectively, were added at −1, 0, 2, 4, 6, 8, 10, 12 and 14 h post infection. After the treated cells were further cultured and collected at 24 h post infection, the total RNA was isolated from the HEp-2 cells using TRIzol reagent (Thermo Fisher Scientific, Waltham, MA, USA) and reverse transcribed with GoScript Reverse Transcriptase kit (Promega, Madison, WI, USA). Then, RT-qPCR was performed as described previously.
as §1, with “After HEp-2 cells seeded into 24 well plates for 24 h, the cold media containing RSV (5 MOI) and compounds of 4–49C, 1-HB-63 and P13 at 1 mM, 200 μM and 100 μM, respectively, was added and incubated for 1 h at 4 °C. Then, the total RNA was isolated and RT-qPCR was performed. (C) RSV minigenome assay.” left out

| SMILES | inhibition of expression of Gluc gene [1] | time points of addition at which virus replication is inhibited [2] |
| --- | --- | --- |
| NC(=O)c1ncn([C@@H]2O[C@H](CO)[C@@H](O)[C@H]2O)n1 [ribavirin, Ribavirin, reference compound] | sharply contrast |  |
| Cc1cn2nc([C@@H]3CCCCN3C(=O)c3cc(Cl)ccc3NS(C)(=O)=O)cc2nc1N1CC[C@H](N)C1 [GS-5806, reference compound] | could not be inhibited | inhibition activity only when added up to 0 and 2 h |
